Reference: patent publication US7714006B1, “Methods of modifying the bioavailability of metaxalone” (King Pharmaceuticals Research & Development, Inc., priority 2001, dated 2010)

Key:
[1] = Effects of age and gender on PK parameters, 1×800 mg data from study 103 and 2×400 mg data from study 105, fed and fasted; assay type: in vivo, human; details: 1×800 mg (103) + 2×400 mg (105)
Method: The report is based primarily on two similarly designed studies in which PK parameters were determined under fed and fasted conditions for the 2×400 mg dose of metaxalone: • Study AN151607-103 (hereafter referred to as the 103 study): a four-period, randomized crossover trial with treatment conditions 2×400 mg with food, 2×400 mg without food, 1×800 mg with food, 1×800 mg without food; and • Study ELN151607-105 (hereafter referred to as the 105 study): a two-period, randomized crossover trial with treatment conditions 2×400 mg with food and 2×400 mg without food.
These analyses are still based on the combined group of n=103 subjects (59 from study 103, 44 from study 105). However, the fed and fasted PK values from the 1×800 dosage of study 103 are used instead of the data from the 2×400 dosage.
It is possible to somewhat independently assess the consistency of the results from Sections 3.2 and 3.3 by repeating the analyses using the 1×800 fed and fasted results from study 103. These analyses are still based on the combined group of n=103 subjects (59 from study 103, 44 from study 105). However, the fed and fasted PK values from the 1×800 dosage of study 103 are used instead of the data from the 2×400 dosage.
The same regression modeling strategy as was described in Sections 3.2 and 3.3 was also used. […] The parameter estimates, standard errors, and p-values for the gender and age effects are shown below for the fed and fasted conditions in TABLE XIb: […]

[2] = Effects of age and gender on PK parameters, study 101 (1×400 mg with and without food); assay type: in vivo, human
Method: In addition, the robustness of the results are assessed by applying similar analysis approaches to the data from two other studies: • Study AN151607-101 (hereafter referred to as the 101 study): a two-period, randomized crossover trial with treatment conditions 1×400 mg with food and 1×400 mg without food; • Study AN151607-106 (hereafter referred to as the 106 study): a single dose trial with treatment condition 2×400 mg without food.
Study 101 was a two-period randomized crossover trial conducted in 42 healthy volunteers. The mean age was 23.8 years, with a range from 18 to 42 years. The treatment conditions were 1×400 mg with food and 1×400 mg without food. Because the treatments were not the same as in the 103 and 105 studies (1×400 mg in study 101, as opposed to 2×400 mg in studies 103 and 105), and additionally because the blood sample collection schedules were not the same, it is not possible to combine the 101 data with the data from studies 103 and 105. However, it is possible to independently investigate the effects of age on fed and fasted values of the PK parameters in order to determine if the effects are of similar magnitude and direction to those found in the 103 and 105 studies.
First, Pearson and Spearman correlation coefficients between age and each of the three PK parameters were computed. The correlation coefficients and two-sided p-values from the test of the null hypothesis of no association are shown below in TABLE VIa:
Linear regression models using the natural logarithm of each of the three PK parameters as the dependent variable and age as the independent variable were fitted in order to estimate the magnitude of the associations with age.
Study 101 was a two-period randomized crossover trial conducted in 42 healthy volunteers (31 males, 11 females). The mean age was 23.8 years, with a range from 18 to 42 years. The treatment conditions were 1×400 mg with food and 1×400 mg without food. Because the treatments were not the same as in the 103 and 105 studies, and additionally because the blood sample collection schedules were not the same, it is not possible to combine the 101 data with the data from studies 103 and 105. However, it is reasonable to independently investigate the effects of age and gender on the fed and fasted values of the PK parameters in order to determine if the effects are of similar magnitude and direction to those found in the 103 and 105 studies.
The same regression modeling strategy as was described in Sections 3.2 and 3.3 was also applied. The initial regression models with a gender effect and separate age effects for males and females yielded positive estimates of the age effect for males and negative estimates for females. This was consistent across all three PK parameters. However, none of the age effects was statistically significant and, in addition, there was no significant evidence of interaction between age and gender (all p-values exceeded 0.10). […]

SMILES: Cc1cc(C)cc(OCC2CNC(=O)O2)c1 (stereo not shown) [metaxalone, 5-[(3,5-dimethylphenoxy)methyl]-2 oxazolidinone]
- Variability of the fasted PK parameters explained by age ([1]; fasted): more than 25%
- Pearson correlation, age vs ln(AUC(inf)) ([1]; fasted, n=103): 0.513
- Pearson correlation, age vs ln(AUC(last)) ([1]; fasted, n=103): 0.522
- Pearson correlation, age vs ln(Cmax) ([1]; fasted, n=103): 0.600
- Spearman correlation, age vs ln(AUC(inf)) ([1]; fasted, n=103): 0.514
- Spearman correlation, age vs ln(AUC(last)) ([1]; fasted, n=103): 0.522
- Spearman correlation, age vs ln(Cmax) ([1]; fasted, n=103): 0.635
- Pearson correlation, age vs ln(AUC(inf)) ([1]; fasted, females n=42): 0.582
- Pearson correlation, age vs ln(AUC(last)) ([1]; fasted, females n=42): 0.596
- Pearson correlation, age vs ln(Cmax) ([1]; fasted, females n=42): 0.607
- Spearman correlation, age vs ln(AUC(inf)) ([1]; fasted, females n=42): 0.596
- Spearman correlation, age vs ln(AUC(last)) ([1]; fasted, females n=42): 0.601
- Spearman correlation, age vs ln(Cmax) ([1]; fasted, females n=42): 0.638
- Pearson correlation, age vs ln(AUC(inf)) ([1]; fasted, males n=61): 0.441
- Pearson correlation, age vs ln(AUC(last)) ([1]; fasted, males n=61): 0.447
- Pearson correlation, age vs ln(Cmax) ([1]; fasted, males n=61): 0.567
- Spearman correlation, age vs ln(AUC(inf)) ([1]; fasted, males n=61): 0.499
- Spearman correlation, age vs ln(AUC(last)) ([1]; fasted, males n=61): 0.501
- Spearman correlation, age vs ln(Cmax) ([1]; fasted, males n=61): 0.599
- Variability of the fed PK parameters explained by age ([1]; fed): ≤ 5%
- Pearson correlation, age vs ln(AUC(inf)) ([1]; fed, n=103): 0.237
- Pearson correlation, age vs ln(AUC(last)) ([1]; fed, n=103): 0.229
- Pearson correlation, age vs ln(Cmax) ([1]; fed, n=103): 0.040
- Spearman correlation, age vs ln(AUC(inf)) ([1]; fed, n=103): 0.281
- Spearman correlation, age vs ln(AUC(last)) ([1]; fed, n=103): 0.276
- Spearman correlation, age vs ln(Cmax) ([1]; fed, n=103): 0.086
- Pearson correlation, age vs ln(AUC(inf)) ([1]; fed, females n=42): 0.436
- Pearson correlation, age vs ln(AUC(last)) ([1]; fed, females n=42): 0.408
- Pearson correlation, age vs ln(Cmax) ([1]; fed, females n=42): 0.258
- Spearman correlation, age vs ln(AUC(inf)) ([1]; fed, females n=42): 0.432
- Spearman correlation, age vs ln(AUC(last)) ([1]; fed, females n=42): 0.410
- Spearman correlation, age vs ln(Cmax) ([1]; fed, females n=42): 0.202
- Pearson correlation, age vs ln(AUC(inf)) ([1]; fed, males n=61): 0.023
- Pearson correlation, age vs ln(AUC(last)) ([1]; fed, males n=61): 0.022
- Pearson correlation, age vs ln(Cmax) ([1]; fed, males n=61): −0.170
- Spearman correlation, age vs ln(AUC(inf)) ([1]; fed, males n=61): 0.187
- Spearman correlation, age vs ln(AUC(last)) ([1]; fed, males n=61): 0.188
- Spearman correlation, age vs ln(Cmax) ([1]; fed, males n=61): −0.001
- Proportion of variability explained by age, ln(AUC(inf)) ([2]; fasted): 7.7%
- Proportion of variability explained by age, ln(Cmax) ([2]; fasted): 13.4%
- Pearson correlation, age vs ln(AUC(inf)) ([2]; fasted, females n=11): 0.208
- Pearson correlation, age vs ln(AUC(last)) ([2]; fasted, females n=11): 0.284
- Pearson correlation, age vs ln(Cmax) ([2]; fasted, females n=11): 0.309
- Spearman correlation, age vs ln(AUC(inf)) ([2]; fasted, females n=11): 0.235
- Spearman correlation, age vs ln(AUC(last)) ([2]; fasted, females n=11): 0.406
- Spearman correlation, age vs ln(Cmax) ([2]; fasted, females n=11): 0.525
- Pearson correlation, age vs ln(AUC(inf)) ([2]; fasted, males n=31): 0.287
- Pearson correlation, age vs ln(AUC(last)) ([2]; fasted, males n=31): 0.279
- Pearson correlation, age vs ln(Cmax) ([2]; fasted, males n=31): 0.384
- Spearman correlation, age vs ln(AUC(inf)) ([2]; fasted, males n=31): 0.115
- Spearman correlation, age vs ln(AUC(last)) ([2]; fasted, males n=31): 0.127
- Spearman correlation, age vs ln(Cmax) ([2]; fasted, males n=31): 0.206
- Pearson correlation, age vs ln(AUC(inf)) ([2]; fasted, n=42): 0.277
- Pearson correlation, age vs ln(AUC(last)) ([2]; fasted, n=42): 0.289
- Pearson correlation, age vs ln(Cmax) ([2]; fasted, n=42): 0.366
- Spearman correlation, age vs ln(AUC(inf)) ([2]; fasted, n=42): 0.146
- Spearman correlation, age vs ln(AUC(last)) ([2]; fasted, n=42): 0.161
- Spearman correlation, age vs ln(Cmax) ([2]; fasted, n=42): 0.235
- Proportion of variability explained by age, ln(AUC(inf)) ([2]; fed): 3%
- Proportion of variability explained by age, ln(AUC(last)) ([2]; fed): 3%
- Proportion of variability explained by age, ln(Cmax) ([2]; fed): 1%
- Pearson correlation, age vs ln(AUC(inf)) ([2]; fed, females n=11): −0.165
- Pearson correlation, age vs ln(AUC(last)) ([2]; fed, females n=11): −0.188
- Pearson correlation, age vs ln(Cmax) ([2]; fed, females n=11): −0.396
- Spearman correlation, age vs ln(AUC(inf)) ([2]; fed, females n=11): −0.244
- Spearman correlation, age vs ln(AUC(last)) ([2]; fed, females n=11): −0.295
- Spearman correlation, age vs ln(Cmax) ([2]; fed, females n=11): −0.645
- Pearson correlation, age vs ln(AUC(inf)) ([2]; fed, males n=31): 0.268
- Pearson correlation, age vs ln(AUC(last)) ([2]; fed, males n=31): 0.271
- Pearson correlation, age vs ln(Cmax) ([2]; fed, males n=31): 0.234
- Spearman correlation, age vs ln(AUC(inf)) ([2]; fed, males n=31): 0.088
- Spearman correlation, age vs ln(AUC(last)) ([2]; fed, males n=31): 0.094
- Spearman correlation, age vs ln(Cmax) ([2]; fed, males n=31): 0.169
- Pearson correlation, age vs ln(AUC(inf)) ([2]; fed, n=42): 0.186
- Pearson correlation, age vs ln(AUC(last)) ([2]; fed, n=42): 0.179
- Pearson correlation, age vs ln(Cmax) ([2]; fed, n=42): 0.102
- Spearman correlation, age vs ln(AUC(inf)) ([2]; fed, n=42): 0.029
- Spearman correlation, age vs ln(AUC(last)) ([2]; fed, n=42): 0.022
- Spearman correlation, age vs ln(Cmax) ([2]; fed, n=42): −0.009
